pIC50: −log10 of the molar value. Read-outs that look alike come from different tables or passages of the source.
Assays:
AURKA = AURKA (Homo sapiens (Human), UniProt O14965); test: Radioisotope filter binding assay (HotSpotSM; ReactionBiology) for AURKA kinase inhibition; type: biochemical
Text: Table 2 summarizes the EC values of different compounds of this invention determined by colony formation assays on NMP53^−/− and NMCdkn2a^ARF−/− cells, as well as the corresponding IC50 values for the kinase inhibition of AURKA, determined by radioisotope filter binding assay (HotSpotSM; ReactionBiology). Most compounds further show a strong selectivity for NMP53^−/− cells, which is indicated by a lower EC concentration of a particular compound required for inhibiting cell growth of NMP53^−/− cells compared to NMCdkn2a^ARF−/− cells.

NMP53^−/− cells = test: Cell viability assay (XTT-Assay); type: cell-based, murine; details: 3 days treatment, read-out: cellular IC50
Method: (A) Colony formation assay of a tumor cell line (NMP53^−/− cells), incubated for 5 days with compound 3a [N-(2-fluoro-5-((4-(1-methyl-1H-pyrazole-4-yl)benzyl)amino)phenyl)-3-(furan-2-yl)-propanamide] as indicated, fixed and stained with crystal violet. (B) Viability measurement (XTT assay) of a tumor cell line (NMP53^−/− cells) treated for 3 days with a series of concentrations of compound 3a according to this invention. […] (C) Determination of the percentage of cell death (by means of propidium iodide staining) of a tumor cell line (NMP53^−/− cells) treated with compound 3a for 5 days.
The cell viability assay (XTT-Assay) was used to determine cellular IC50 values. 1 000 cells were seeded per 96 well and treated with a 2-fold dilution series of the compounds on the next day. As a control, the cells were treated with DMSO according to the highest compound concentration (negative control) or 1.5 mM chloroquine (positive control). 3 days after treatment with the respective compound, or DMSO/chloroquine as a control, the XTT Assay was conducted according to the manufacturer's instructions (Invitrogen, X6493). The absorbance was measured with the Infinite M Plex plate reader (Tecan) at 450 nm. The IC50 was calculated by variable slope nonlinear regression utilizing GraphPad Prism 8.4.0 software (GraphPad Software, La Jolla, CA), with the DMSO treated cells resembling 100% cell viability and the chloroquine treated cells resembling o % cell viability.

NMCdkn2a^ARF−/− cells = test: Colony formation assay on NMCdkn2a^ARF−/− cells; type: cell-based, murine; details: Mus musculus, 120 h, 5 days, read-out: EC (NMCdkn2a^ARF−/−)
Text: To evaluate the effect of small molecules equipped with R-spine interacting moieties, the inventors screened a focused library of proprietary p38a MAP-Kinase inhibitors which were equipped with R-spine interacting pharmacophores. To this end, the inventors utilized a screening system as developed in Dauch et al.^2 The screening system is based on colony formation assays of cell lines isolated from Nras-driven, Trp53-deficient murine HCCs, whose development is dependent on MYC (NMP53^−/− cells), as well as Nras-driven, Cdkn2a^ARF-deficient murine HCCs, which develop independently of MYC (NMCdkn2a^ARF−/− cells). Importantly, NMP53^−/− cells are sensitive to AURKA inhibitors, which induce a conformational shift in AURKA, whereas NMCdkn2a^ARF−/− are not sensitive to such compounds.
For Colony Formation Assays, cells were seeded at a density of 50 000 cells per 6 well and next day treated with a 2-fold dilution series of the indicated compounds or the highest corresponding DMSO concentration as control. After 5 days, the cells were fixed with a 10% formaldehyde solution for 30 min, washed once with water, stained with a 0.5% crystal violet solution for 30 min and washed twice with water. The compounds effective concentration (EC) was determined according to the lowest concentration in the dilution series, that inhibited cell growth substantially. The resulting benzamide containing hit structure 1, with a twofold selectivity towards NMP53^−/− cells (effective concentration on NMP53^−/− cells (EC): 2 μM, EC on Cdkn2a^ARF−/−: 4 μM, FIG. 1), served as the inventors' starting point for further compound development.

[1] = target: interaction of AURKA with TPX2 (Homo sapiens (Human), UniProt O14965); test: Co-immunoprecipitation of FLAG-AURKA and western blot for TPX2; type: cell-based, murine; details: Co-IP with anti-FLAG, NMP53^−/− cells synchronized with nocodazole
Method: Tumor cells (NMP53^−/− cells) expressing a doxycycline-inducible FLAG-AURKA construct were kept on doxycycline for 24 hours, synchronized with 50 ng/ml nocodazole for 6 hours and treated with two of the developed compounds or DMSO as a control. In particular, the top “AURKA-Ligand” refers to compound 3a [N-(2-fluoro-5-((4-(1-methyl-1H-pyrazole-4-yl)benzyl)amino)phenyl)-3-(furan-2-yl),propanamide], and the bottom “AURKA-Ligand” refers to compound 2c [N-(5-((4-(1H-pyrazole-4-yl)benzyl)amino)-2-fluorophenyl)-3-(furan-2-yl)propanamide]. Co-immunoprecipitations (Co-IP) were carried out with an antibody against FLAG. A DMSO-treated sample without FLAG-AURKA induction served as a control. The AURKA and TPX2 levels of the Co-IP samples and their input were determined by western blotting.
Tumor cells (NMP53/cells) expressing a doxycycline-inducible FLAG-AURKA construct were kept on doxycycline for 24 hours, synchronized with 50 ng/ml nocodazole for 6 hours and treated with two of the developed compounds of this invention (3a and 2c), or DMSO as a control. Then, co-immunoprecipitations (Co-IP) were carried out with an antibody against FLAG. A DMSO-treated sample without FLAG-AURKA induction served as a control. The AURKA and TPX2 levels of the Co-IP samples and their input were determined by western blotting.

[2] = lowest concentration of 2-fold dilution series that inhibited cell growth substantially

Chain of interaction of AURKA with TPX2 (O14965 whole entry, looked up): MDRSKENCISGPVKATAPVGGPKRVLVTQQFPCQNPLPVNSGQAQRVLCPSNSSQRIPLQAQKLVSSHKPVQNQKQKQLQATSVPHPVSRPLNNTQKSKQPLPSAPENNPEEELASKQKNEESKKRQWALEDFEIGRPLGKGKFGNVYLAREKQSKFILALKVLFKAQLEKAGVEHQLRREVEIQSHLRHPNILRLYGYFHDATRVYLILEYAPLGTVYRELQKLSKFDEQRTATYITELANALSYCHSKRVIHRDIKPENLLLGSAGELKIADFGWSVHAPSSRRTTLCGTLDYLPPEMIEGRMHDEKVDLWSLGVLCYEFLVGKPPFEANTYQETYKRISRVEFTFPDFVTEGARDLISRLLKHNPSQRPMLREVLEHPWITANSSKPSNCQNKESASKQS
Chain of interaction of AURKA with TPX2 (A2APB8 whole entry partner, looked up): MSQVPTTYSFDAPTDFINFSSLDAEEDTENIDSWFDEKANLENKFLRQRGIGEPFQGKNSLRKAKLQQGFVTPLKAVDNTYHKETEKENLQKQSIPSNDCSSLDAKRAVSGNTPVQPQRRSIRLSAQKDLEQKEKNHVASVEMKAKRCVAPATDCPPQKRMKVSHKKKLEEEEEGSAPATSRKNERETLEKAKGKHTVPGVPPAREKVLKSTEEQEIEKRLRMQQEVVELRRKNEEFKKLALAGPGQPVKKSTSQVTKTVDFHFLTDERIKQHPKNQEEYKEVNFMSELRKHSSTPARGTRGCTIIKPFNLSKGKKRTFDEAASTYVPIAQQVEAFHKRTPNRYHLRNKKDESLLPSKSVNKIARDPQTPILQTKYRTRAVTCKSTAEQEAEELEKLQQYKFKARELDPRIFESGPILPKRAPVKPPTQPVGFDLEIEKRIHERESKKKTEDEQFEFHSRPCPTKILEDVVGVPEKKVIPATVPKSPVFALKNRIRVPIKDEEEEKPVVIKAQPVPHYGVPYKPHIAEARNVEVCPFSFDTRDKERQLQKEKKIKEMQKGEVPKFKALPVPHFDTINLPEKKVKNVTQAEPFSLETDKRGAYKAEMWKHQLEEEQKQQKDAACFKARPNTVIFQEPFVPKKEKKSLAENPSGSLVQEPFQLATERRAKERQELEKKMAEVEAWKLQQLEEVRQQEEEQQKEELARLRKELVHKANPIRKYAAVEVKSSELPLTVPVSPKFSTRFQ
Chain of AURKA (O14965 whole entry): as the sequence (O14965 whole entry, looked up) above

SMILES | pIC50 (AURKA) | pIC50 (NMP53^−/− cells; Mus musculus, 72 h) | minimal effective concentration (NMCdkn2a^ARF−/− cells; [2]) [µM] | minimal effective concentration (NMCdkn2a^ARF−/− cells) [µM] | interaction of AURKA with TPX2 [1] | pIC50 (NMP53^−/− cells)
O=C(CCc1ccco1)Nc1cc(NCc2ccc(-c3cn[nH]c3)cc2)ccc1F [Compound 2c, N-(5-((4-(1H-pyrazole-4-yl)benzyl)amino)-2-fluorophenyl)-3-(furan-2-yl)propanamide] | 7.56 | 7.22 | 1 | > 1 | largely enhance | –
Cn1cc(-c2ccc(CNc3ccc(F)c(NC(=O)CCc4ccco4)c3)cc2)cn1 [Compound 3a, N-(2-fluoro-5-((4-(1-methyl-1H-pyrazole-4-yl)benzyl)amino)phenyl)-3-(furan-2-yl)propanamide] | < 5.00 | 7.85 | 0.25 to 0.5 | 0.25 to 0.5 | largely enhance | 7.89

From patent US20240101538A1, “PROTEIN-PROTEIN INTERACTION MODULATORS OF AURORA KINASE A AND THEIR USE IN THE PREVENTION AND/OR TREATMENT OF CANCER” (EBERHARD KARLS UNIVERSITÄT TÜBINGEN, priority 2020, published 2024)
